Data from patent publication US4438115A, “Compositions and methods for treating diseases in circulatory organs” (Chugai Seiyaku Kabushiki Kaisha, priority 1980, dated 1984).
Counter-ions that a name gives are not always drawn.

Key:
systemic blood pressure [1] = assay: Reduction of systemic blood pressure (Experiment 2(a)); assay type: in vivo, beagle (anesthetized); conditions: intravenous; for inhibition in vivo at 0.025 mg/kg: Canis lupus familiaris, Table 2, read-out: Average percent reduction in blood pressure; for Average low pressure retention time: Table 3
Method: A beagle was anesthetized by intravenous injection of sodium pentobarbital and under artificial respiration an incision was made in the chest.
1. Systemic blood pressure (SBP): The SBP was measured by a pressure transducer that was connected to a catheter inserted into the right femoral artery.

heart rate = assay: Change in heart rate (Experiment 2(b)); assay type: in vivo, beagle (anesthetized); conditions: for Percent change in heart rate: Table 4, Experiment 2; for effect on heart rate (time course): in words
Method: A beagle was anesthetized by intravenous injection of sodium pentobarbital and under artificial respiration an incision was made in the chest. The various actions of Compounds 1, 2, 3, 5 and 7 of the present invention were checked by the following procedures:
2. Heart rate (HR): The HR was measured by a cardiotachometer using the pulse wave of blood pressure as trigger pulse.
As for the compounds of the present invention, a temporary increase was followed by a gradual decrease which started almost at the same time when a second phase reduction in blood pressure occurred (see FIG. 1).

blood pressure = assay: Blood pressure in unanesthetized SHR rats (Experiment 4); assay type: in vivo; conditions: oral, 10 mg/Kg; for blood pressure after dosing: 180±5.0 mmHg just before administration
Method: Unanesthetized SHR rats (five rats per group) were administered orally 10 mg/Kg of Compound 1.

[2] = Acute toxicity, oral administration to rats for fourteen consecutive days; assay type: in vivo, male SD strain rats; conditions: 400 mg/Kg, as hydrochloride, male SD rats
Method: The acute toxicity of Compounds Preparation Nos. 1 to 15 was examined by the oral administration of them to male SD strain rats (five rats per group) for fourteen consecutive days. All compounds had low toxicity and none supressed weight gain. No rat died upon administration of Compound 1 or 2 (both as hydrochloride) in a dose of 400 mg/Kg.

systemic blood pressure [3] = assay: Neurogenic hypertension by artery obstruction/stricture (Experiment 3); assay type: in vivo, beagle (hypertensive); conditions: intravenous, 25 μg/Kg; FIG. 2, FIG. 3
Method: Hypertension was induced in a beagle by exciting the sympathetic nerve due to an obstruction of the bilateral vertebral artery and right common carotid artery, as well as a stricture of the left common carotid artery. The beagle was treated intravenously with 25 μg/Kg of Compounds 1 and 2.

SMILES | Percent change in heart rate (heart rate) | inhibition in vivo at 0.025 mg/kg (systemic blood pressure [1]; 25 μg/kg) | Average low pressure retention time (systemic blood pressure [1]; 25 μg/kg) | change in systemic blood pressure (time course, FIG. 1) (systemic blood pressure [1]; 25 μg/kg, in words) | other results
NNc1nncc2ccccc12 [A, hydralazine hydrochloride, reference compound] | – | – | – | – | significant reduction in blood pressure (systemic blood pressure [1]; 25 μg/Kg, in words): did not exhibit significant reduction in blood pressure
CCOC(=O)CCCN1CCN(c2ccccc2OC)CC1 [F, reference compound] | 11.2% | 15.2% | 8.8 min | only temporary | effect on heart rate (time course) (heart rate): first increased the heart rate and thereafter the increased heart rate gradually returned to the normal level
CCOC(=O)CCCCN1CCN(c2ccccc2OC)CC1 [Compound 7, 1-(4-ethoxycarbonylbutyl)-4-(o-methoxyphenyl)piperazine] | 13.2% | 19.1% | 13.4 min | the initial temporary reduction was followed by a reduction in the second phase, and the systemic blood pressure was maintained low thereafter | –
CCOC(=O)CCCCCCN1CCN(c2ccccc2OC(C)C)CC1 [Compound 3, 1-(6-ethoxycarbonylhexyl)-4-(o-isopropyloxyphenyl)piperazine] | -4.0% | 22.1% | 22.4 min | – | –
COc1ccccc1N1CCN(CCCCCO)CC1 [B, reference compound] | 9.9% | 16.1% | 15.0 min | – | –
COC(=O)CCCCCCN1CCN(c2ccccc2OC)CC1 [Compound 5, 1-(6-methoxycarbonylhexyl)-4-(o-methoxyphenyl)piperazine] | -2.2% | 23.1% | 18.6 min | – | –
CCOC(=O)CCCCCCN1CCN(c2ccccc2OC)CC1 [Compound 1, 1-(6-ethoxycarbonylhexyl)-4-(o-methoxyphenyl)piperazine] | -9.6% | 25.5% | 47.3 min | the initial temporary reduction was followed by a reduction in the second phase, and the systemic blood pressure was maintained low thereafter | blood pressure after dosing (blood pressure; 1 h): 127±11.6 mmHg; blood pressure after dosing (blood pressure; 2 h): 137±7.6 mmHg; duration of reduced blood pressure (blood pressure; in words): maintained at the reduced level for a satisfactorily long time; deaths upon administration [2]: No rat died; extension of low pressure retention time, hypertensive vs normal beagle (systemic blood pressure [3]): more effective; reduction of heart rate, hypertensive vs normal beagle (systemic blood pressure [3]): more effective; reduction of systemic blood pressure, hypertensive vs normal beagle (systemic blood pressure [3]): more effective; period of maintained low blood pressure compared with the others (systemic blood pressure [1]; 25 μg/kg, in words): maintained the blood pressure at low level for a longer period than did the others
CCOC(=O)CCCCCN1CCN(c2ccccc2OC)CC1 [Compound 2, 1-(5-ethoxycarbonylpentyl)-4-(o-methoxyphenyl)piperazine] | -1.6% | 22.4% | 20.0 min | the initial temporary reduction was followed by a reduction in the second phase, and the systemic blood pressure was maintained low thereafter | deaths upon administration [2]: No rat died; extension of low pressure retention time, hypertensive vs normal beagle (systemic blood pressure [3]): more effective; reduction of heart rate, hypertensive vs normal beagle (systemic blood pressure [3]): more effective; reduction of systemic blood pressure, hypertensive vs normal beagle (systemic blood pressure [3]): more effective
COc1ccccc1N1CCN(CCCCCCCO)CC1 [D, reference compound] | -9.1% | 14.3% | 22.5 min | – | –
COc1ccccc1N1CCN(CCCCCCO)CC1 [C, reference compound] | 8.1% | 12.6% | 14.4 min | – | –
CCOC(=O)CCN1CCN(c2ccccc2OC)CC1 [E, reference compound] | 16.8% | 15.1% | 6.8 min | only temporary | effect on heart rate (time course) (heart rate): first increased the heart rate and thereafter the increased heart rate gradually returned to the normal level
